PMC6895199, “A new antiviral scaffold for human norovirus identified with computer-aided approaches on the viral polymerase” (Scientific Reports, 2019)

How the values were obtained:
MNV = MNV CPE reduction assay (MTS) in RAW 264.7 cells; format: cell-based, mouse norovirus (MNV-1.CW1); conditions: Norovirus, RAW264.7, in Mus musculus, Table 2, RAW 264.7, range 0.6–100 µM, at least three independent experiments
How it was run: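 MNV-1.CW1-infected RAW 264.7 cells treated at eight concentrations (0.6–100 µM), 2′-C-methylcytidine as positive control. Viability read by MTS/PMS at OD 498 nm after 2 h; %CPE reduction normalised to uninfected and infected untreated cells, EC50 = concentration protecting 50% of cells from virus-induced CPE.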

[1] = Cytotoxicity by the MTS method on uninfected cells; format: cell-based; conditions: mouse, uninfected RAW 264.7 cells, Table 2, at least three independent experiments
Method: Cytotoxicity: The cytotoxicity of the Compounds was evaluated by the MTS method, by exposing uninfected cells to the same concentrations of compounds for 3 days. The %cell viability was calculated as (ODtreated/ODCC) × 100, where ODCC is the OD of uninfected untreated cells and ODtreated are uninfected cells treated with compound. The CC50 was defined as the compound concentration that reduces the number of viable cells by 50%[34].

## O=C(NC(=S)Nc1ccc(N2CCN(C(=O)c3cccs3)CC2)cc1)c1sc2ccccc2c1Cl [Compound 48, 3-Chloro-N-((4-(4-(thiophene-2-carbonyl)piperazin-1-yl)phenyl)carbamothioyl)benzo[b]thiophene-2-carboxamide, reference compound]
MNV
  EC50: 58.2 ± 20.7 µM
[1]
  CC50 at 3 days: > 100 µM

## Cc1ccc(C(=O)NC(=S)Nc2ccc(N3CCN(C(=O)c4cccs4)CC3)cc2)cc1 [Compound 52, 4-Methyl-N-((4-(4-(thiophene-2-carbonyl)piperazin-1-yl)phenyl)carbamothioyl)benzamide]
MNV
  EC50: 45.1 ± 10.8 µM
[1]
  CC50 at 3 days: > 100 µM

## O=C(NC(=S)Nc1ccc(N2CCN(C(=O)c3nccs3)CC2)cc1)c1sc2ccccc2c1Cl [Compound 56, 3-Chloro-N-((4-(4-(thiazole-2-carbonyl)piperazin-1-yl)phenyl)carbamothioyl)benzo[b]thiophene-2-carboxamide]
MNV
  EC50: 66.1 ± 12.3 µM
[1]
  CC50 at 3 days: > 100 µM
